Data on twelve compounds can be found in ChEMBL document CHEMBL3603748, “Design of HIV-1 Protease Inhibitors with Amino-bis-tetrahydrofuran Derivatives as P2-Ligands to Enhance Backbone-Binding Interactions: Synthesis, Biological Evaluation, and Protein-Ligand X-ray Studies” (J Med Chem, 2015).

Assay [1] relates to Human immunodeficiency virus 1. As to the kind of experiment: Antiviral activity against darunavir-resistant HIV1 P10 infected in human MT4 cells by XTT assay. The class given is functional, organism-based. Conditions: Human immunodeficiency virus 1, P10, MT4.
Assay [2] deals with Human immunodeficiency virus 1. As to the kind of experiment: Antiviral activity against HIV1 NL4-3 infected in human MT4 cells by XTT assay. The note with it: Human immunodeficiency virus 1, NL4-3, MT4. The class given is functional, organism-based. (In general: Formazan colour is commonly taken as a measure of viable cells.)
The target of another assay is Protease (Human immunodeficiency virus 1, UniProt Q9YQ12). In words: Inhibition of HIV1 protease.
In assay [3] the test system is Human immunodeficiency virus 1. In words: Resistance index, ratio of EC50 for darunavir-resistant HIV1 P20 infected in human MT4 cells by XTT assay to EC50 for HIV1 NL4-3 infected in human MT4 cells by XTT assay. The class given is functional.
In assay [4] the test system is Human immunodeficiency virus 1. In words: Antiviral activity against HIV1 LAI infected in human MT2 cells. Conditions: Human immunodeficiency virus 1, LAI. The class given is functional, organism-based.
Assay [5] deals with Human immunodeficiency virus 1. As to the kind of experiment: Antiviral activity against darunavir-resistant HIV1 P20 infected in human MT4 cells by XTT assay. The class given is functional, organism-based. The note with it: Human immunodeficiency virus 1, P20, MT4.
Assay [6] has as its system Human immunodeficiency virus 1. As to the kind of experiment: Antiviral activity against darunavir-resistant HIV1 P51 infected in human MT4 cells by XTT assay. The class given is functional, organism-based. The note with it: Human immunodeficiency virus 1, P51, MT4.

Structures are written as SMILES.

Sequence of Protease (Q9YQ12 whole entry): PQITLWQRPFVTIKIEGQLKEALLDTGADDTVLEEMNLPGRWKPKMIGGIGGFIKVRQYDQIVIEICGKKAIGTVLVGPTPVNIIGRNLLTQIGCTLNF

Regarding `COc1ccc(S(=O)(=O)N(CC(C)C)C[C@@H](O)[C@H](Cc2ccccc2)NC(=O)O[C@H]2CO[C@H]3OC[C@H](NC(C)C)[C@H]32)cc1`, the EC50 (in general, the concentration giving half of the maximal effect) in assay [1] worked out at 21 nM; in assay [2], 1 nM; in assay [5] it was 24 nM; in assay [6], 260 nM. Moreover, at Protease, the Ki – broadly, the equilibrium dissociation constant of an inhibitor or competing ligand from its target – came out at 0.0063 nM. Further, in assay [3], the “Ratio EC50” value came to 23. For the same compound, in assay [4], it took 0.34 nM to reach half-maximal inhibition (IC50).

Regarding `COc1ccc(S(=O)(=O)N(CC(C)C)C[C@@H](O)[C@H](Cc2ccccc2)NC(=O)O[C@H]2CO[C@H]3OC[C@H](N(C)C)[C@H]32)cc1`, the Ki at Protease came out at 0.014 nM. In addition, the IC50 – broadly, the concentration needed to halve the response being measured – in assay [4] was determined as 4.4 nM.

Turning to `CCN(CC)[C@H]1CO[C@@H]2OC[C@H](OC(=O)N[C@@H](Cc3ccccc3)[C@H](O)CN(CC(C)C)S(=O)(=O)c3ccc(OC)cc3)[C@@H]21`, on Protease, the affinity, expressed as Ki, was 0.014 nM. In addition, in assay [4], the IC50 was 7.2 nM.

As for `COc1ccc(S(=O)(=O)N(CC(C)C)C[C@@H](O)[C@H](Cc2ccccc2)NC(=O)O[C@H]2CO[C@H]3OC[C@H](N=[N+]=[N-])[C@H]32)cc1`, at Protease, the Ki is 0.0039 nM. Further, in assay [4], half-maximal inhibition (IC50) was put at 4.4 nM.

On Protease, `COc1ccc(S(=O)(=O)N(CC(C)C)C[C@@H](O)[C@H](Cc2ccccc2)NC(=O)O[C@H]2CO[C@H]3OC[C@H](N)[C@H]32)cc1` registered a Ki of 0.53 nM. Besides, half-maximal inhibition in assay [4] (IC50) was put at 48 nM.

At Protease, `COc1ccc(S(=O)(=O)N(CC(C)C)C[C@@H](O)[C@H](Cc2ccccc2)NC(=O)O[C@H]2CO[C@H]3OC[C@H](NC(=O)OC(C)(C)C)[C@H]32)cc1` yielded a Ki of 0.014 nM. The compound also registered a concentration for half-maximal inhibition (IC50) in assay [4] of 4.4 nM.

For `COC(=O)N[C@H]1CO[C@@H]2OC[C@H](OC(=O)N[C@@H](Cc3ccccc3)[C@H](O)CN(CC(C)C)S(=O)(=O)c3ccc(OC)cc3)[C@@H]21`, on Protease, the Ki worked out at 0.024 nM. This compound registered an IC50 in assay [4] of 3.7 nM.

Take `COc1ccc(S(=O)(=O)N(CC(C)C)C[C@@H](O)[C@H](Cc2ccccc2)NC(=O)O[C@H]2CO[C@H]3OC[C@H](N(C)C(=O)OC(C)(C)C)[C@H]32)cc1`: the Ki on Protease stood at 0.012 nM. Half-maximal inhibition in assay [4] (IC50) required 37 nM.

With `CN[C@H]1CO[C@@H]2OC[C@H](OC(=O)N[C@@H](Cc3ccccc3)[C@H](O)CN(CC(C)C)S(=O)(=O)c3ccc(OC)cc3)[C@@H]21`, the EC50 in assay [2] was found to be 29 nM; in assay [5] it was 32 nM. The same compound gave a Ki at Protease of 0.0015 nM. Further, in assay [3], the “Ratio EC50” value was found to be 1.1. For the same compound, in assay [4], the IC50 was found to be 35 nM.

`CN[C@H]1CO[C@@H]2OC[C@H](OC(=O)N[C@@H](Cc3ccccc3)[C@H](O)CN(CC(C)C)S(=O)(=O)c3ccc(N)cc3)[C@@H]21`: the Ki at Protease stood at 0.0099 nM. Besides, the IC50 in assay [4] amounted to 480 nM.

The compound `CCN(C(=O)OC(C)(C)C)[C@H]1CO[C@@H]2OC[C@H](OC(=O)N[C@@H](Cc3ccccc3)[C@H](O)CN(CC(C)C)S(=O)(=O)c3ccc(OC)cc3)[C@@H]21` returned a Ki on Protease of 0.048 nM. This counts as picomolar.

Consider `CCN[C@H]1CO[C@@H]2OC[C@H](OC(=O)N[C@@H](Cc3ccccc3)[C@H](O)CN(CC(C)C)S(=O)(=O)c3ccc(OC)cc3)[C@@H]21`, for which the EC50 stood at 39 nM in assay [1], 15 nM in assay [2] and 230 nM in assay [6]. Also, the Ki at Protease is 0.027 nM. Moreover, in assay [4], the IC50 was 22 nM.
